# Data taken from US8592629B2, “Sulfonamide derivatives as Nav 1.7 inhibitors” (Pfizer Limited, priority 2010, dated 2013).
# pIC50: −log10 of the molar value.
# Molecular target: T1, Nav1.7 (or SCN9A) channel (Homo sapiens, UniProt Q15858)
# T1 construct: expressed in transfected cells
# Experiment: Nav1.7 (hSCN9A) block in HEK cells, PatchXpress 7000 automated electrophysiology, estimated IC50 (EIC50)
# Format: cell-based
# Details: PatchXpress assay; HEK cells stably transfected with hSCN9A, voltage-clamped at V1/2 of inactivation
# Summary of the method: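 Stable hSCN9A HEK cells voltage-clamped at empirically determined inactivation V1/2 (8 s prepulse), current activated by 20 msec step to 0 mV; % inhibition from current before vs after compound. EIC50 derived from single-point data as concentration × (100−%inhibition)/%inhibition, excluding <20% and >80% inhibition; PatchXpress unless stated.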
# T1 sequence (Q15858 whole entry): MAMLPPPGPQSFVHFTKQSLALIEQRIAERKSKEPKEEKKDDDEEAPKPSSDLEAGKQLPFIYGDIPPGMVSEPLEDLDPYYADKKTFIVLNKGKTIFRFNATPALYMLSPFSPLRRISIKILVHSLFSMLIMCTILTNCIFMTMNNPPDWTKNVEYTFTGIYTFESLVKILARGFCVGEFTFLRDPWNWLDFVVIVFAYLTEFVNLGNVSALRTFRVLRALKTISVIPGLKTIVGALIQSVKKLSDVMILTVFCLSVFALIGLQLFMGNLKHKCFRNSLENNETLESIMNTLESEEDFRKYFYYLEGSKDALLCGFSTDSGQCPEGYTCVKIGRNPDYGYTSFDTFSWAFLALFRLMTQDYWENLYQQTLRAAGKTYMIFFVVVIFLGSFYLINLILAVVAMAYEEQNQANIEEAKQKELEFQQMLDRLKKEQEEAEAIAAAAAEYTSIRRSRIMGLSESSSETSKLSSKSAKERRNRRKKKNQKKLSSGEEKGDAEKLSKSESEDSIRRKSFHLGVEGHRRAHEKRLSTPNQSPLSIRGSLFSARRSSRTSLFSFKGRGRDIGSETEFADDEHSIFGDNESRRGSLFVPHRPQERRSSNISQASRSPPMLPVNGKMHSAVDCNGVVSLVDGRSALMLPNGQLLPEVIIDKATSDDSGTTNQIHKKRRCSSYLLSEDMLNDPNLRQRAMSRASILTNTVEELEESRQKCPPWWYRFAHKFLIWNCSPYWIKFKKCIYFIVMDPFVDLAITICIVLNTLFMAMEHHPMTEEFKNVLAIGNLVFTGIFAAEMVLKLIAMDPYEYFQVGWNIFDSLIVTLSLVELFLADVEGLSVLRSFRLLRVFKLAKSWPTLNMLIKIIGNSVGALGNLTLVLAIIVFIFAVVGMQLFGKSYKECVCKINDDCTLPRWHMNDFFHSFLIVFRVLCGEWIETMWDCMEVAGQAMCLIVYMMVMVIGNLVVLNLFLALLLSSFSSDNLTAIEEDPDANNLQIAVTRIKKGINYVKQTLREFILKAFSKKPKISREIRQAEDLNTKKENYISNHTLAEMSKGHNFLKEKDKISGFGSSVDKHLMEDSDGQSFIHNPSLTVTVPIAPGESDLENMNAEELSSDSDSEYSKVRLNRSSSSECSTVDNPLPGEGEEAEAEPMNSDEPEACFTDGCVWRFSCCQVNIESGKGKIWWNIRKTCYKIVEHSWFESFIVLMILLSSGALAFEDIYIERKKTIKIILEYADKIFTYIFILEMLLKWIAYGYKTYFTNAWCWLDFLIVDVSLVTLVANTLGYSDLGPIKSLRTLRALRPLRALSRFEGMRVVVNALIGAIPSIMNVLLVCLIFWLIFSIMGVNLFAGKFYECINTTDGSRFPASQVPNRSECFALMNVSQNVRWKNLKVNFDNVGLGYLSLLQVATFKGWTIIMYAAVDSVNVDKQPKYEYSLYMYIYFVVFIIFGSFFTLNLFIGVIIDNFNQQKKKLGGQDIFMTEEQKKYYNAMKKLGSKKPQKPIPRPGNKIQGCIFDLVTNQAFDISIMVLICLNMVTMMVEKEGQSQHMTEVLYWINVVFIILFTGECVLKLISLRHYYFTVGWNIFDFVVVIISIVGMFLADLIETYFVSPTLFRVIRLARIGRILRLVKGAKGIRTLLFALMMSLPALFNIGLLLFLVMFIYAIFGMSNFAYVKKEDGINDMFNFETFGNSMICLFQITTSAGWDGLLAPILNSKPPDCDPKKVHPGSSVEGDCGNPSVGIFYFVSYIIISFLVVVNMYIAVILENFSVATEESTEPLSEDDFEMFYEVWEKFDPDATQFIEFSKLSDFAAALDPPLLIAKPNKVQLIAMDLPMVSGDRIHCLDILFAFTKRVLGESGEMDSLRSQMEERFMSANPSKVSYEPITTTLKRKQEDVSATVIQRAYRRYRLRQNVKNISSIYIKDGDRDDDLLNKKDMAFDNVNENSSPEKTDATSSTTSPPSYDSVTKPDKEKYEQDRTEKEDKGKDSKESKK
row,SMILES,pIC50
1,"CS(=O)(=O)NC(=O)c1cc(F)c(Oc2cnc(N3CC(F)C3)c(Cl)c2)cc1F [Example 134, 4-{[5-chloro-6-(3-fluoroazetidin-1-yl)pyridin-3-yl]oxy}-2,5-difluoro-N-(methylsulfonyl)benzamide]",6.24
2,"CC(C)CN(C)c1ncc(Oc2cc(F)c(C(=O)NS(C)(=O)=O)cc2F)cc1Cl [Example 135, 4-({5-chloro-6-[isobutyl(methyl)amino]pyridin-3-yl}oxy)-2,5-difluoro-N-(methylsulfonyl)benzamide]",6.85
3,"COC[C@H](C)Nc1ncc(Oc2cc(F)c(C(=O)NS(C)(=O)=O)cc2F)cc1Cl [Example 136, 4-[(5-chloro-6-{[(1S)-2-methoxy-1-methylethyl]amino}pyridin-3-yl)oxy]-2,5-difluoro-N-(methylsulfonyl)benzamide]",6.05
4,"CNc1ncc(Oc2cc(F)c(C(=O)NS(C)(=O)=O)cc2F)cc1Cl [Example 137, 4-{[5-chloro-6-(methylamino)pyridin-3-yl]oxy}-2,5-difluoro-N-(methylsulfonyl)benzamide]",5.49
5,"CS(=O)(=O)NC(=O)c1cc(F)c(Oc2cnc(NC3CCCC3)c(Cl)c2)cc1F [Example 138, 4-{[5-chloro-6-(cyclopentylamino)pyridin-3-yl]oxy}-2,5-difluoro-N-(methylsulfonyl)benzamide]",7.07
6,"CN(c1ncc(Oc2cc(F)c(C(=O)NS(C)(=O)=O)cc2F)cc1Cl)C1CCOC1 (stereo not drawn) [Example 139, 4-({5-chloro-6-[methyl(tetrahydrofuran-3-yl)amino]pyridin-3-yl}oxy)-2,5-difluoro-N-(methylsulfonyl)benzamide]",5.59
7,"CS(=O)(=O)NC(=O)c1cc(F)c(Oc2cnc(NC3CC3)c(Cl)c2)cc1F [Example 140, 4-{[5-chloro-6-(cyclopropylamino)pyridin-3-yl]oxy}-2,5-difluoro-N-(methylsulfonyl)benzamide]",5.80
8,"CN(CC1CC1)c1ncc(Oc2cc(F)c(C(=O)NS(C)(=O)=O)cc2F)cc1Cl [Example 141, 4-({5-chloro-6-[(cyclopropylmethyl)(methyl)amino]pyridin-3-yl}oxy)-2,5-difluoro-N-(methylsulfonyl)benzamide]",6.57
9,"CS(=O)(=O)NC(=O)c1cc(F)c(Oc2cnc(N3CCCCC3)c(Cl)c2)cc1F [Example 142, 4-[(5-chloro-6-piperidin-1-ylpyridin-3-yl)oxy]-2,5-difluoro-N-(methylsulfonyl)benzamide]",6.77
10,"COCCNc1ncc(Oc2cc(F)c(C(=O)NS(C)(=O)=O)cc2F)cc1Cl [Example 143, 4-({5-chloro-6-[(2-methoxyethyl)amino]pyridin-3-yl}oxy)-2,5-difluoro-N-(methylsulfonyl)benzamide]",< 6.00
11,"CS(=O)(=O)NC(=O)c1cc(F)c(Oc2cnc(N[C@@H]3CCC[C@H]3F)c(Cl)c2)cc1F [Example 144, 4-[(5-chloro-6-{[(1R,2R)-2-fluorocyclopentyl]amino}pyridin-3-yl)oxy]-2,5-difluoro-N-(methylsulfonyl)benzamide]",6.31
12,"CS(=O)(=O)NC(=O)c1cc(F)c(Oc2cnc(NC3CCCOC3)c(Cl)c2)cc1F (stereo not drawn) [Example 145, 4-{[5-chloro-6-(tetrahydro-2H-pyran-3-ylamino)pyridin-3-yl]oxy}-2,5-difluoro-N-(methylsulfonyl)benzamide]",6.09
13,"CS(=O)(=O)NC(=O)c1cc(F)c(Oc2cnc(N3CCCC3)c(Cl)c2)cc1F [Example 146, 4-[(5-chloro-6-pyrrolidin-1-ylpyridin-3-yl)oxy]-2,5-difluoro-N-(methylsulfonyl)benzamide]",7.12
14,"CCN(CC)c1ncc(Oc2cc(F)c(C(=O)NS(C)(=O)=O)cc2F)cc1Cl [Example 150, 4-{[5-chloro-6-(diethylamino)pyridin-3-yl]oxy}-2,5-difluoro-N-(methylsulfonyl)benzamide]",6.66
15,"CS(=O)(=O)NC(=O)c1cc(F)c(Oc2ncccc2C(F)(F)F)cc1F [Example 182, 2,5-difluoro-N-(methylsulfonyl)-4-{[3-(trifluoromethyl)pyridin-2-yl]oxy}benzamide]",< 5.52
